Values quoted from earlier work in patent US20230087473A1, “COMPOSITION OF SUSPOEMULSION FORMULATION OF ANTHELMINTIC DRUGS WITH ESSENTIAL OILS FOR NASO-PULMONARY ADMINISTRATION” (priority 2021, published 2023).

Legend:
[1] = in vivo
Musca Domenstica = conditions: nasal irrigation with ivermectin solution, within 15 minutes
SARS-COV-2 = conditions: in-vitro study

## O=C(Nc1ccc([N+](=O)[O-])cc1Cl)c1cc(Cl)ccc1O [Niclosamide]
[1]
  bioavailability: very low bioavailability

## Ivermectin
Musca Domenstica
  larvae self-expulsed by the patient: approximately 50 larvae
SARS-COV-2
  effect on replication of SARS-COV-2: inhibitory role
